# Measured values taken from a melting point compilation (Tetko et al.; mined from patent text by program, amines drawn as free bases though some values may be those of a salt).
row,melting point [°C],Structure (SMILES)
1,166 to 167,Cc1ccc(-c2cncnc2N)cc1
2,190 to 192,COC(=O)[C@H]1CC[C@@H](NC(=O)c2cc(-c3ccc(C#N)cc3)nn(C)c2=O)CC1
3,142 to 146,Nc1nc2c(s1)CCN(CC=Cc1ccc(F)cc1)CC2
4,143 to 146,O=C(CCCCC(=O)Oc1ccc(NC(=O)c2ccccc2)cc1)CC1CC(O)CC1=O (stereo not drawn)
5,105 to 106,O=C(OCc1ccccc1)N1C(=O)[C@H](O)[C@@H]1c1ccccc1
6,269 to 270,O=C(O)c1cnc(NC(=O)C(CC2CCCC2)c2ccc(Cl)c(Cl)c2)s1 (stereo not drawn)
7,155,Nc1cnc2cc(F)c(F)cc2c1
8,121,COC(=O)C(c1ccc(Cl)cc1)c1c(Cl)cc(-n2ncc(=O)[nH]c2=O)cc1Cl (stereo not drawn)
9,225 to 226,O=C1N=c2ccc(OCCBr)cc2=N1
10,> 300,CCCn1c(=O)n(C)c(=O)c2nc(-c3ccc(/C=C/C(=O)O)cc3)[nH]c21
11,131 to 133,CC(O)CN1C(=O)N(CN2C(=O)N(CC(C)O)C(=O)C2(C)C)C(C)(C)C1=O (stereo not drawn)
12,270 to 271,Cc1nc2cccnc2n(-c2ccc(F)cc2)c1=O
13,155 to 157,O=C(O)c1ccccc1OCCCN1C(=O)c2ccccc2C1=O
14,121 to 124,O=C(c1ccccc1)N1CCc2[nH]c3cccc(CCCOc4ccccc4)c3c2CC1
15,129 to 130,COc1c(C=Cc2ccccc2)cc(C(C)(C)C)cc1C=Cc1ccccc1
16,117 to 119,COc1cc2c(-c3ccccc3)csc2c(Cl)c1Cl
17,153 to 159,COC(=O)c1cnc(N2CCN(c3nc4ccc(C(F)(F)F)cc4[nH]3)CC2)c(Cl)c1
18,206 to 209,O=C(CCC1CCNCC1)c1ccc2[nH]c3ccccc3c2c1
19,223 to 224,Cn1c(=O)c(=NO)nc(-c2ccccc2)c2cnccc21
20,250 to 253,Cc1c(C(=O)c2ccccc2)[nH]c(CC(=O)O)c1C(=O)O
21,61 to 62,CCCc1cn(CCO)nc1OCc1ccc2ccccc2n1
22,222 to 224,Cc1ccc2ccccc2c1C(=O)/C=C/c1ncn(C(c2ccccc2)(c2ccccc2)c2ccccc2)c1C
23,154 to 155,CC(C)N1CC[C@@H](Oc2ccc(-n3ccc(OCc4ccc(Cl)cn4)cc3=O)cc2)C1
24,246 to 247,O=c1n(C(c2ccccc2)(c2ccccc2)c2ccccc2)nc2ccc(Cl)nn12

row,melting point [°C],Structure (SMILES)
1,139 to 140,COc1cc(C2=C(C(C)(C)C)C(C)(C)CO2)cc(OC)c1Br
2,197,O=C(O)COc1cccc2c1CCC(CCn1cnc(-c3ccccc3)c1-c1ccccc1)C2 (stereo not drawn)
3,148 to 151,CC(=O)OCC(=O)NCc1cccc(-c2csc(N=C(N)NC(=O)COC(C)=O)n2)n1
4,160 to 161,O=C(NC1CNC1=O)OCc1ccccc1 (stereo not drawn)
5,155 to 157,CS(=O)(=O)c1ccc2c(c1)C(=O)CC1(CCN(C(=O)c3ccccc3)CC1)O2
6,> 250,NCC1Cc2cc(C(F)(F)F)cc(-c3ccc(F)c(Cl)c3)c2O1 (stereo not drawn)
7,168 to 169,CC(C)c1ccccc1Sc1c(O)cc(-c2cc(Cl)cc(Cl)c2)oc1=O
8,180,CC(=O)Nc1cc2c(s1)C(c1ccccc1)CN(C)CC2 (stereo not drawn)
9,168,CCCCc1nc(SCC)c(C(=O)O)n1Cc1ccc(C(=O)O)cc1
10,253 to 257,CC(C)(C)c1cc(NC(=O)c2cccc(C(=O)O)c2)cc(C(C)(C)C)c1O
11,113 to 114,Cc1oc(-c2ccccc2)nc1CCOc1ccc(CC2SC(=O)NC2=O)cc1 (stereo not drawn)
12,174 to 177,CC(N1CCC(n2c(=O)[nH]c3ccccc32)CC1)N1Sc2ccccc2C1C(N)=O (stereo not drawn)
13,> 240,CN1CCN(Cc2c(C(=O)O)nc3c(=O)[nH]c4cc(C(F)(F)F)ccc4n23)CC1
14,165 to 166,COc1ccc(-c2c(Cl)c(Cn3cncn3)nc3sc4c(c23)CCN(Cc2ccccc2)C4)cc1OC
15,105 to 108,N#CC1CC2CC2N1C(=O)C(N)C12CC3CC(CC(O)(C3)C1)C2 (stereo not drawn)
16,193 to 194,NNc1nnc(C(=O)C(F)(F)F)nc1-c1ccccc1
17,> 300,O=c1c2ccc(O)cc2oc2c1oc1c3ccccc3ccc21
18,157 to 160,CCOc1ccc2[nH]c(SCc3cccn4ccnc34)nc2c1
19,153 to 155,CSc1ccc(-c2cncn2-c2ccc(S(C)(=O)=O)cc2)cc1
20,96.7,O=C(c1ccccc1)c1ccc(Cl)c(N=C=S)c1
21,134 to 136,CC(C)(C)OC(=O)[C@H](CCC(=O)N1CCC2(CCN(Cc3ccccc3)CC2)CC1)NS(=O)(=O)c1ccccc1
22,248 to 252,CCNCC1CCN(c2cc3c(cc2F)c(=O)c(C(=O)O)cn3CC)C1 (stereo not drawn)
23,160 to 162,Cc1cc(SC2=C(O)C[C@@](CCc3ccccc3)(C(C)C)OC2=O)c(C(C)C)c2sc(N)nc12
24,210 to 211,Cc1cc(Cn2nnn(-c3ccc(C(F)(F)F)cc3)c2=O)ccc1N

row,melting point [°C],Structure (SMILES)
1,56 to 59,Cn1nc(Cl)c(Cl)c1S(=O)(=O)CCCl
2,130 to 131,COC(=O)c1ccc(Cl)c2nc(C(C)(C)C)oc12
3,52 to 54,COC(=O)c1ccc(OC)nc1OC
4,109 to 110,CCOC(=O)c1sc(OCC)c2c1CCc1cnn(C)c1-2
5,183 to 184,O=C(NCCCCCCNC(=O)c1ccc(Oc2ccccc2)cc1)c1ccc(Oc2ccccc2)cc1
6,176 to 178,Cc1cccc2c(=O)[nH]c(CCN3CC[C@H](O)C3)cc12
7,142 to 144,CCCCCCNc1cccc2c1C(=O)c1cccc(NCCCCCC)c1C2=O
8,188 to 190,COc1ccc(CN(CCN(C)C)c2ccc(C(=O)O)cn2)cc1
9,130,CC(c1cccs1)N(O)C(N)=O (stereo not drawn)
10,125 to 132,CC(C)(C)NS(=O)(=O)c1cn(CCOC2CCCCO2)c2ccccc12 (stereo not drawn)
11,250 to 252,COc1ccc(-c2c(Cl)c(CN3C(=O)CCC3=O)nc3sc4c(c23)CCNC4)cc1OC
12,76 to 77,O=[N+]([O-])c1cccc2c1COCO2
13,146 to 150,C[C@@H](F)c1nc(N)nc(N[C@H]2c3ccccc3C[C@@H]2C)n1
14,137 to 138,COc1ccc(-c2cc(=S)n(Cc3ccc(F)cc3)nc2-c2ccc(OC)cc2)cc1
15,180 to 181,Cc1c(NC(=O)c2ccc(OCc3ccccc3)cc2F)ccc2cc(CN3CCCCC3)cnc12
16,77 to 78,O=C(OC1CCN(Cc2ccccc2)CC1)c1ccc(I)cc1
17,181 to 183,Cc1cc(-c2cccc(C(F)(F)F)c2)nn2cnnc12
18,173 to 175,CC(C)C[C@@H](CC=O)NC(=O)[C@H](Cc1c[nH]cn1)NC(=O)[C@H](Cc1ccccc1)NC(=O)OCc1ccccc1
19,203 to 204,CN1CCN(c2cccc3c2C[C@H](NC(=O)c2ccc(C(F)(F)F)cc2)CC3)CC1
20,166 to 167,C=Cc1c(C(=O)O)cccc1[N+](=O)[O-]
21,82.5 to 83.5,COC1C(O)C=C(C)C(OC(=O)c2ccccc2)CC1(C)C (stereo not drawn)
22,122 to 123,CCOC(=O)NCCC12CC(c3ccccc31)c1ccccc12
23,163 to 165,CC(=O)OC1CCCC(n2cnc3cc(Cl)c(Cl)cc32)C1OC(C)=O (stereo not drawn)
24,182 to 183,CCOCCCOc1ccc(-c2ccc3c(c2)C=C(C(=O)Nc2ccc(CN(C)C4CCOCC4)cc2)CCS3(=O)=O)cc1Cl

row,melting point [°C],Structure (SMILES)
1,101 to 103,CNc1cc(C(F)(F)F)cc(N(CCN(C)C)C(=O)N(C)C)n1
2,114 to 116,N#CCCN1CCN(C(c2ccccc2)c2ccccn2)CC1 (stereo not drawn)
3,93 to 97,CCCCOCC(=O)NNC(=O)N1Cc2ccccc2Oc2ccc(Cl)cc21
4,113 to 114,Cc1ccc([N+](=O)[O-])c(OCCOc2cc(C(=O)OC(C)(C)C)ccc2[N+](=O)[O-])c1
5,53 to 56,CC(C)(CN)Cc1ccc(CC(C)(C)CN)cc1
6,143,O=C(CN1C(=O)c2ccccc2C1=O)Nc1ccccc1Oc1ccccc1
7,186 to 188,Cc1cccc(-c2cncc(Nc3ccc(Cl)cc3)n2)n1
8,75 to 76,CC(C)(C)OC(=O)NCC[C@H]1CC[C@H](CO)CC1
9,259,O=C(CN1CCOCC1)Nc1cccc2c1C(=O)c1c-2n[nH]c1-c1ccc(N2CCNCC2)cc1
10,74 to 78,CC1(C)CC(O)CC(C)(C)N1OC1CCCCC1
11,158 to 160,N#Cc1c(N2CCCC2)cc(-c2ccccc2)c2c1-c1ccccc1C2
12,258,COc1ccccc1-c1nc2cc(NC(=O)c3c(C(=O)N4CCC4)cnn3C)ccn2n1
13,154 to 156,Cc1nc(Cl)c(Cl)n1CCCCN1CCN(c2ncc(O)cn2)CC1
14,79.4 to 80.3,CSc1cc2cc(-c3ccccc3)ccc2cc1OS(=O)(=O)C(F)(F)F
15,68 to 72,CCOC(=O)C(CSC12CC3CC(CC(C3)C1)C2)NC(C)C(=O)O (stereo not drawn)
16,74.5 to 75,O=C(CC(O)(c1cc(Cl)cc(Cl)c1)C(F)(F)F)c1ccc(Br)c2ccccc12 (stereo not drawn)
17,171 to 178,COc1ccc(-c2cc3ncnc(Nc4ccc5[nH]ccc5c4)c3s2)cc1OC
18,120 to 122,O=C(Nc1cccnc1Cl)N1CCc2ccccc2CC1
19,106 to 108,CCOC(=O)CSCc1cccc(-c2c(CC(=O)Nc3ccc(F)cc3C(F)(F)F)c(=O)oc3cc(Cl)c(C)cc23)c1
20,209 to 211,COc1ccc(C(=O)Nc2ccccc2)cc1NS(=O)(=O)c1ccc(F)cc1
21,96 to 97,N#Cc1ccc(Oc2ccc(CC(=O)OCc3ccccc3)cc2)nc1
22,196 to 198,COc1cc(F)ccc1CCn1ccn2c(=O)cc(-c3ccncn3)nc12
23,119 to 121,O=C(CCCCc1ccccc1)Nc1ccc2c(c1O)C(=O)CC2
24,224,Cc1ccc(N2C(=O)C(O)=C(C(=O)c3ccc(OC(F)(F)F)cc3)C2c2ccc(Cn3cncn3)cc2)nn1 (stereo not drawn)

row,Structure (SMILES),melting point [°C]
1,CCOP(OCC)c1ccccc1P(c1cc(C(C)(C)C)c(OC)c(C(C)(C)C)c1)c1cc(C(C)(C)C)c(OC)c(C(C)(C)C)c1,104 to 105
2,Cn1nc2n(c1=O)-c1ccc(Cl)cc1C(c1ccccc1F)=CC2,142 to 143
